# Data from US4315023A, “1-Phenethylimidazole derivatives” (Westwood Pharmaceuticals, Inc., priority 1980, dated 1982).
# Where a name gives a salt, the structure may show the parent alone.
# What was measured:
# Streptococcus pneumoniae = test: in vitro antibacterial activity (MIC), S. pneumoniae; assay type: cell-based; details: 50% Nutrient Broth + 5% human serum
# Trichophyton quinekeanum = Trichophyton quinekeanum induced skin infection in guinea pigs; assay type: in vivo, male guinea pigs; details: for EC50, Trichophyton Skin Infection: Table I, percentage drug concentration giving 50% of the score of untreated control, topical ointment; for EC50 (%) (95% CL), Trichophyton skin infection: Table II, N = 4, 3 applications day 1, 3 and 5; for Score, Determ. F / Score, Mean / Score, Determ. G: lesion score 0-4
# Description: In the guinea pig skin infection test, Trichophyton quinekeanum was cultured on a YGP agar slant at 28° C. for 10 days. Spores were collected from the mycelial mat and suspended in Sabouraud broth containing 2% of Tween 80. Groups of 3 male guinea pigs weighing between 400-500 g were used for each dose of test compound. The flanks of the animals were depilated and injured with sandpaper. The injured area was inoculated and rubbed with a glass rod on day 0 with 0.2 ml of the spore suspension containing 10^8 CFU/ml. The test compound was combined with a 1:1 mixture of polyethylene glycol 400 and 4000, and 0.3 ml of the ointment was applied to the infected area on day 1, 3 and 5. Lesions were examined on day 7 and scored as follows: 0, normal; 1, erythema; 2, erythema with whitish area; 3, erythema and numerous whitish areas; 4, erythema with confluent scaling and whitish pateches. A compound showing a mean score of 1.5 or less was considered active.
# In the following Table I the antifungal activity of the test compound is reported as the EC50 value, which is the percentage drug concentration giving 50% of the score of untreated control animals. The EC50 was calculated by the method of least squares (K. Brounlee: Statistical Theory and Methodology in Science and Engineering, pages 345-349, Wiley Press, New York, 1965). In Table II a more detailed comparison on the in vivo antifungal activities of compound 3a and the isomeric prior art compound 2 are shown together with the data for compound 3b.
# Treatment: 5 applications (day 0 to 4) against candida vaginal infection
# and 3 applications (day 1, 3 and 5) against trichophyton skin infection
# Candida albicans = Candida albicans induced vaginal infection in mice; assay type: in vivo, female mice; details: for EC50, Candida Vaginal Infection: Table I, percentage drug concentration giving 50% of the score of untreated control, intravaginal; for EC50 (%) (95% CL), Candida vaginal infection: Table II, N = 5, 5 applications day 0 to 4; for Score, Determination A / Score, Determination B / Score, Mean / Score, Determination C / Score, Determination D: score 0-4
# Description: A majority of the compounds of formula 3 were evaluated together with the prior art compound of formula 2 in a Candida albicans induced vaginal infection in mice and a Trichophyton quinekeanum induced skin infection in guinea pigs. Sabouraud broth was inoculated with Candida albicans and the inoculum incubated for two days at 28° C. on a rotary shaker. Groups of four to five female mice weighing between 18-21 grams were infected intravaginally with a 0.01 ml portion of the cell suspension containing 10^8 cells/ml on day 0. The mice were treated subcutaneously with 0.5 mg of estradiol benzoate three days before and four days after infection. The test compounds were suspended in 1% carboxymethyl cellulose and 0.02 ml of the suspension was instilled intravaginally from day 0 (four hours after infection) to day 4 (5 applications). On day 7, vaginal exudate was taken by a thin glass rod and streaked on a YGP agar plate containing 100 mcg/ml of chloramphenicol. The plate was incubated for two days at 28° C. […] In the following Table I the antifungal activity of the test compound is reported as the EC50 value, which is the percentage drug concentration giving 50% of the score of untreated control animals. The EC50 was calculated by the method of least squares (K. Brounlee: Statistical Theory and Methodology in Science and Engineering, pages 345-349, Wiley Press, New York, 1965). In Table II a more detailed comparison on the in vivo antifungal activities of compound 3a and the isomeric prior art compound 2 are shown together with the data for compound 3b.
# Staphylococcus aureus = test: in vitro antibacterial activity (MIC), S. aureus; assay type: cell-based; details: Nutrient Broth
# S. faecalis = test: in vitro antibacterial activity (MIC), S. faecalis; assay type: cell-based, Streptococcus faecalis; details: Enterococcus faecalis; Nutrient Broth
# Streptococcus pyogenes = test: in vitro antibacterial activity (MIC), S. pyogenes; assay type: cell-based; details: 50% Nutrient Broth + 5% human serum
smiles,measurement,setting,value
"Cc1ccc(CSCSC(Cn2ccnc2)c2ccc(Cl)cc2Cl)cc1.O=C(O)/C=C/C(=O)O (stereo not shown) [Compound 3c, 1-[2-(2,4-Dichlorophenyl)-2-(4-methylbenzylthiomethylthio)ethyl]-1H-imidazole hydrogen fumarate]",MIC,Streptococcus pneumoniae,63 µg/mL
same,"EC50, Trichophyton Skin Infection",Trichophyton quinekeanum,0.046%
same,"EC50, Candida Vaginal Infection",Candida albicans,0.0042%
same,MIC,Staphylococcus aureus; Strain A,0.5 µg/mL
same,MIC,Staphylococcus aureus; Strain B,> 63 µg/mL
same,MIC,Staphylococcus aureus; Strain C,0.5 µg/mL
same,MIC,S. faecalis,2 µg/mL
same,MIC,Streptococcus pyogenes,63 µg/mL
"Cl.Clc1ccc(C(Cn2ccnc2)SCSCc2ccc(Cl)s2)c(Cl)c1 (stereo not shown) [Compound 3i, 1-[2-(5-Chloro-2-thienylmethylthiomethylthio)-2-(2,4-dichlorophenyl)ethyl]-1H-imidazole hydrochloride]","EC50, Trichophyton Skin Infection",Trichophyton quinekeanum,0.038%
same,"EC50, Candida Vaginal Infection",Candida albicans,0.0022%
"Clc1ccc(C(Cn2ccnc2)SCSCc2c(Cl)cccc2Cl)c(Cl)c1 (stereo not shown) [Compound 3e, 1-[2-(2,6-Dichlorobenzylthiomethylthio)-2-(2,4-dichlorophenyl)ethyl]1-H-imidazole hydrochloride]",MIC,Streptococcus pneumoniae,> 63 µg/mL
same,"EC50, Trichophyton Skin Infection",Trichophyton quinekeanum,0.085%
same,"EC50, Candida Vaginal Infection",Candida albicans,> 0.3%
same,MIC,Staphylococcus aureus; Strain A,0.25 µg/mL
same,MIC,Staphylococcus aureus; Strain B,> 63 µg/mL
same,MIC,Staphylococcus aureus; Strain C,0.25 µg/mL
same,MIC,S. faecalis,0.5 µg/mL
same,MIC,Streptococcus pyogenes,> 63 µg/mL
"Clc1ccc(SCCSC(Cn2ccnc2)c2ccc(Cl)cc2Cl)cc1 (stereo not shown) [Compound 2, reference compound]","EC50, Trichophyton Skin Infection",Trichophyton quinekeanum,0.10%
same,"EC50 (%) (95% CL), Trichophyton skin infection",Trichophyton quinekeanum,0.10%
same,"Score, Determ. F",Trichophyton quinekeanum; conc. 0.03%,2.3
same,"Score, Mean",Trichophyton quinekeanum; conc. 0.03%,2.3
same,"Score, Determ. F",Trichophyton quinekeanum; conc. 0.1%,2.3
same,"Score, Mean",Trichophyton quinekeanum; conc. 0.1%,2.3
same,"Score, Determ. F",Trichophyton quinekeanum; conc. 0.3%,0.5
same,"Score, Mean",Trichophyton quinekeanum; conc. 0.3%,0.5
same,"EC50, Candida Vaginal Infection",Candida albicans,> 0.3%
same,"EC50 (%) (95% CL), Candida vaginal infection",Candida albicans,> 0.3%
same,"Score, Determination A",Candida albicans; conc. 0.03%,2.8
same,"Score, Determination B",Candida albicans; conc. 0.03%,3.2
same,"Score, Mean",Candida albicans; conc. 0.03%,3.0
same,"Score, Determination A",Candida albicans; conc. 0.1%,2.4
same,"Score, Determination B",Candida albicans; conc. 0.1%,3.0
same,"Score, Mean",Candida albicans; conc. 0.1%,2.7
same,"Score, Determination A",Candida albicans; conc. 0.3%,3.4
same,"Score, Determination B",Candida albicans; conc. 0.3%,1.8
same,"Score, Mean",Candida albicans; conc. 0.3%,2.6
"Cl.Clc1ccc(CSCSC(Cn2ccnc2)c2ccc(Cl)cc2Cl)cc1 (stereo not shown) [Compound 3b, 1-[2-(4-Chlorobenzylthiomethylthio)-2-(2,4-dichlorophenyl)ethyl]-1H-imidazole hydrochloride]",MIC,Streptococcus pneumoniae,> 63 µg/mL
same,"EC50, Trichophyton Skin Infection",Trichophyton quinekeanum,0.053%
same,"EC50 (%) (95% CL), Trichophyton skin infection",Trichophyton quinekeanum,0.053%
same,"Score, Determ. F",Trichophyton quinekeanum; conc. 0.03%,3.5
same,"Score, Determ. G",Trichophyton quinekeanum; conc. 0.03%,1.3
same,"Score, Mean",Trichophyton quinekeanum; conc. 0.03%,2.4
same,"Score, Determ. F",Trichophyton quinekeanum; conc. 0.1%,1.0
same,"Score, Determ. G",Trichophyton quinekeanum; conc. 0.1%,0.3
same,"Score, Mean",Trichophyton quinekeanum; conc. 0.1%,0.7
same,"Score, Determ. F",Trichophyton quinekeanum; conc. 0.3%,0.3
same,"Score, Determ. G",Trichophyton quinekeanum; conc. 0.3%,0.3
same,"Score, Mean",Trichophyton quinekeanum; conc. 0.3%,0.3
same,"EC50, Candida Vaginal Infection",Candida albicans,0.0011%
same,"EC50 (%) (95% CL), Candida vaginal infection",Candida albicans,0.0011%
same,"Score, Determination C",Candida albicans; conc. 0.0003%,1.6
same,"Score, Determination D",Candida albicans; conc. 0.0003%,3.3
same,"Score, Mean",Candida albicans; conc. 0.0003%,2.5
same,"Score, Determination A",Candida albicans; conc. 0.001%,3.0
same,"Score, Determination C",Candida albicans; conc. 0.001%,1.6
same,"Score, Determination D",Candida albicans; conc. 0.001%,0.4
same,"Score, Mean",Candida albicans; conc. 0.001%,1.7
same,"Score, Determination A",Candida albicans; conc. 0.003%,0.4
same,"Score, Determination B",Candida albicans; conc. 0.003%,2.0
same,"Score, Determination C",Candida albicans; conc. 0.003%,2.2
same,"Score, Determination D",Candida albicans; conc. 0.003%,0.2
same,"Score, Mean",Candida albicans; conc. 0.003%,1.2
same,"Score, Determination A",Candida albicans; conc. 0.01%,1.4
same,"Score, Determination B",Candida albicans; conc. 0.01%,0.6
same,"Score, Determination C",Candida albicans; conc. 0.01%,1.4
same,"Score, Determination D",Candida albicans; conc. 0.01%,0
same,"Score, Mean",Candida albicans; conc. 0.01%,0.85
same,"Score, Determination A",Candida albicans; conc. 0.03%,0
same,"Score, Determination B",Candida albicans; conc. 0.03%,0.8
same,"Score, Determination C",Candida albicans; conc. 0.03%,2.4
same,"Score, Determination D",Candida albicans; conc. 0.03%,0.8
same,"Score, Mean",Candida albicans; conc. 0.03%,1.0
same,"Score, Determination A",Candida albicans; conc. 0.1%,0.2
same,"Score, Determination B",Candida albicans; conc. 0.1%,0
same,"Score, Mean",Candida albicans; conc. 0.1%,0.1
same,"Score, Determination A",Candida albicans; conc. 0.3%,0
same,"Score, Determination B",Candida albicans; conc. 0.3%,0
same,"Score, Mean",Candida albicans; conc. 0.3%,0
same,MIC,Staphylococcus aureus; Strain A,> 63 µg/mL
same,MIC,Staphylococcus aureus; Strain B,> 63 µg/mL
same,MIC,Staphylococcus aureus; Strain C,> 63 µg/mL
same,MIC,S. faecalis,> 63 µg/mL
same,MIC,Streptococcus pyogenes,> 63 µg/mL
"Clc1ccc(C(Cn2ccnc2)SCSCc2ccc(Cl)cc2Cl)cc1.O=C(O)/C=C/C(=O)O (stereo not shown) [Compound 3g, 1-[2-(4-Chlorophenyl)-2-(2,4-dichlorobenzylthiomethylthio)ethyl]-1H-imidazole hydrogen fumarate]",MIC,Streptococcus pneumoniae,63 µg/mL
same,MIC,Staphylococcus aureus; Strain A,1 µg/mL
same,MIC,Staphylococcus aureus; Strain B,8 µg/mL
same,MIC,Staphylococcus aureus; Strain C,2 µg/mL
same,MIC,S. faecalis,1 µg/mL
same,MIC,Streptococcus pyogenes,63 µg/mL
"Clc1ccc(C(Cn2ccnc2)SCSCc2ccsc2Cl)c(Cl)c1.O=C(O)C(=O)O (stereo not shown) [Compound 3h, 1-[2-(2-Chloro-3-thienylmethylthiomethylthio)2-(2,4-dichlorophenyl)ethyl]-1H-imidazole hydrogen oxalate]",MIC,Streptococcus pneumoniae,63 µg/mL
same,"EC50, Trichophyton Skin Infection",Trichophyton quinekeanum,0.047%
same,"EC50, Candida Vaginal Infection",Candida albicans,0.050%
same,MIC,Staphylococcus aureus; Strain A,0.5 µg/mL
same,MIC,Staphylococcus aureus; Strain B,16 µg/mL
same,MIC,Staphylococcus aureus; Strain C,0.5 µg/mL
same,MIC,S. faecalis,2 µg/mL
same,MIC,Streptococcus pyogenes,32 µg/mL
"Clc1ccc(CSCSC(Cn2ccnc2)c2ccc(Cl)cc2Cl)c(Cl)c1.O=C(O)/C=C/C(=O)O (stereo not shown) [Compound 3d, 1-[2-(2,4-Dichlorobenzylthiomethylthio)-2-(2,4-dichlorophenyl)ethyl]-1H-imidazole hydrogen fumarate]",MIC,Streptococcus pneumoniae,63 µg/mL
same,"EC50, Trichophyton Skin Infection",Trichophyton quinekeanum,0.078%
same,"EC50, Candida Vaginal Infection",Candida albicans,0.060%
same,MIC,Staphylococcus aureus; Strain A,0.25 µg/mL
same,MIC,Staphylococcus aureus; Strain B,> 63 µg/mL
same,MIC,Staphylococcus aureus; Strain C,0.25 µg/mL
same,MIC,S. faecalis,> 63 µg/mL
same,MIC,Streptococcus pyogenes,63 µg/mL
"Clc1ccc(CSCSC(Cn2ccnc2)c2ccc(Cl)cc2)cc1.O=C(O)/C=C/C(=O)O (stereo not shown) [Compound 3f, 1-[2-(4-Chlorobenzylthiomethylthio)-2-(4-chlorophenyl)ethyl]-1H-imidazole hydrogen fumarate]",MIC,Streptococcus pneumoniae,63 µg/mL
same,MIC,Staphylococcus aureus; Strain A,1 µg/mL
same,MIC,Staphylococcus aureus; Strain B,> 63 µg/mL
same,MIC,Staphylococcus aureus; Strain C,1 µg/mL
same,MIC,S. faecalis,4 µg/mL
same,MIC,Streptococcus pyogenes,63 µg/mL
